Earlier results, collected in patent US20120142631A1, “MEDICINAL ANTIDIAPER RASH CREAM INCORPORATING A BIOPOLYMER AND A PROCESS TO MAKE IT” (APEX LABORATORIES PRIVATE LIMITED, priority 2009, published 2012).
Like-named read-outs stand apart in the source and are kept apart here.

Compound | Solubility (acetone) | Solubility (ethanol) | Solubility / miscibility (ethanol (95%)) | Solubility / miscibility (water) | Solubility (chloroform) | Solubility (ether)
CCCCCCCCCCCCC[N+](C)(C)Cc1ccccc1.[Cl-] [Benzalkonium chloride, benzyl-dimethyl-tridecyl-azanium chloride] | readily soluble | readily soluble | miscible | miscible | – | –
CCCCCCCCCCCCCC[N+](C)(C)C.[Br-] [Cetrimide, tetradecyltrimethylammonium bromide] | – | – | freely soluble | freely soluble | freely soluble | practically insoluble
